In paper PMC6259134, “Synthesis, Antimycobacterial, Antifungal and Photosynthesis-Inhibiting Activity of Chlorinated N-phenylpyrazine-2-carboxamides” (Molecules, 2010):
≈ marks a conversion by molar mass, not a printed value. Where “and” joins values, the source holds several entries; their conditions need not be identical. Identical values can stand only once. Like-named read-outs stand apart in the source and are kept apart here.

How the values were obtained:
[1] = test system: M. tuberculosis H37Rv (ATCC27294); assay: In vitro antimycobacterial primary screening (TAACF, BACTEC 460 / MABA); format: cell-based; conditions: Mycobacterium tuberculosis, read-out: Antimycobacterial evaluation Inhibition
Description: All compounds were assayed in vitro against M. tuberculosis H37Rv. […] None of the tested derivatives overcame this limit, see Table 2.
Antimycobacterial evaluation was carried out in the tuberculosis antimicrobial acquisition and coordinating facility (TAACF), Southern Research Institute, Birmingham, AL, U.S.A., which is a part of the National Institutes of Health (NIH). Primary screening of all compounds was conducted at 6.25 µg/mL against M. tuberculosis H37Rv (ATCC27294) in BACTEC 12B medium using both BACTEC 460 radiometric system and the Microplate Alamar Blue Assay (MABA). For the results see Table 2.

[2] = parameters: method as in PMID 1151976, doi:10.1002/9780470171912.ch3; conditions: Hammett's constant of R3 phenyl substituent; cited from earlier work
[3] = Lipophilicity determination by RP-HPLC (capacity factor k / log k, distributive π parameters); format: physicochemical; conditions: for log k: RP-HPLC, C18, MeOH 70%/H2O 30%, isocratic; for π determined Ph: distributive parameter of phenyl substituents; for π determined Ph / π determined Pyr: calculated from log k; for π determined Pyr: distributive parameter of pyrazine substituents
Description: The procedure was performed under isocratic conditions with methanol as an organic modifier in the mobile phase using an end-capped non-polar C18 stationary RP column. The results are shown in Table 1 and illustrated in Figure 2. Waters Alliance 2695 XE HPLC separation module and Waters Photodiode Array Detector 2996 (Waters Corp., Milford, MA, USA) were used. Waters Symmetry® C18 5 μm, 4.6 ° 250 mm, Part No. WAT054275 (Waters Corp., Milford, MA, USA) chromatographic column was used. The HPLC separation process was monitored by Empower™ 2 Chromatography Data Software, Waters 2009 (Waters Corp., Milford, MA, USA). The mixture of MeOH (HPLC grade, 70%) and H2O (HPLC–Mili-Q Grade, 30%) was used as a mobile phase. The total flow rate of the column was 1.0 mL/min, injection volume 30 μL, column temperature 30 °C and sample temperature 10 °C were used. The detection wavelength of 210 nm was chosen. The KI methanolic solution was used for the dead time (tD) determination. Retention times (tR) were measured in minutes. The capacity factors k were calculated using the Empower™ 2 Chromatography Data Software according to formula k = (tR - tD)/tD, where tR is the retention time of the solute, whereas tD denotes the dead time obtained using an unretained analyte. Log k, calculated from the capacity factor k, is used as the lipophilicity index converted to log P scale. Distributive π parameters characterizing lipophilicity of the individual substituents were calculated according to the formula π = log kS – log kU, where log kS is the determined capacity factor logarithm of the individual substituted compounds, whereas log kU denotes the determined capacity factor logarithm of the unsubstituted compound, it means π = 0.

[4] = test system: Trichophyton mentagrophytes 445; assay: In vitro antifungal susceptibility testing (microdilution broth method); format: cell-based; conditions: T. mentagrophytes; for MIC: Trichophyton mentagrophytes, 445
[5] = test system: photosynthetic electron transport (PET) in spinach chloroplasts; assay: Inhibition of photosynthetic electron transport (PET) in spinach chloroplasts (DCPIP photoreduction); format: biochemical, Spinacia oleracea L.
Description: The activity of the majority of the studied compounds was moderate or low relative to the standard. Chloroplasts were prepared from spinach (Spinacia oleracea L.) according to Masarovičová and Kráľová [26]. […] [27], and the rate of photosynthetic electron transport was monitored as a photoreduction of DCPIP. The measurements were carried out in phosphate buffer (0.02 mol/L, pH 7.2) containing sucrose (0.4 mol/L), MgCl2 (0.005 mol/L) and NaCl (0.015 mol/L). The chlorophyll content was 30 mg/L in these experiments and the samples were irradiated (~100 W/m^2) from 10 cm distance with a halogen lamp (250 W) using a 4 cm water filter to prevent warming of the samples (suspension temperature 22 °C). The studied compounds were dissolved in DMSO due to their limited water solubility. […] The inhibitory efficiency of the studied compounds was manifested by IC50 values, i.e. by molar concentration of the compounds causing 50% decrease in the […] relative to the untreated control.

M. tuberculosis H37Rv = conditions: cited from earlier work
[6] = test system: photosynthetic electron transport (PET) in spinach chloroplasts; parameters: method as in earlier work; conditions: standard, read-out: PET inhibition IC50; cited from earlier work
[7] = after 72 h, MIC for moulds determined as IC50 value, read-out: Antifungal susceptibility MIC
[8] = after 120 h, MIC for moulds determined as IC50 value, read-out: Antifungal susceptibility MIC

SMILES	inhibition at 6.25 µg/mL [1]	σ [2]	log k [3]	π determined Ph [3]	π determined Pyr [3]	MIC [4, 7]	MIC [4, 8]	IC50 [5]	MIC (M. tuberculosis H37Rv)	Antifungal susceptibility MIC ([4]; after 120 h, MIC for moulds determined as IC50 value)	MIC ([4]; incubation time not given, read-out: MIC)	IC50 [6]
CC(C)(C)c1ncc(C(=O)Nc2cccc(Cl)c2)nc1Cl [Compound 4, 5-tert-Butyl-6-chloropyrazine-2-carboxylic acid (3-chlorophenyl)amide]	0%	0.373	1.4896	0.25	1.00	> 250 µM	> 250 µM	101 µM				
CC(C)(C)c1ncc(C(=O)Nc2cccc(C(F)(F)F)c2)nc1Cl [5-tert-butyl-6-chloro-N-(3-trifluoromethylphenyl)pyrazine-2-carboxamide]									3.13 to 6.25 µg/mL			
OC(Cn1cncn1)(Cn1cncn1)c1ccc(F)cc1F [FLU, fluconazole, reference compound]						1.95 µM (≈ 0.597 µg/mL)	3.91 µM (≈ 1.2 µg/mL)			3.91 µM		
Cc1ccc(NC(=O)c2cnccn2)cc1I [N-(3-iodo-4-methylphenyl)pyrazine-2-carbox-amide]									3.13 to 6.25 µg/mL			
O=C(Nc1cccc(Cl)c1)c1cnccn1 [Compound 1, Pyrazine-2-carboxylic acid (3-chlorophenyl)amide]	14%	0.373	0.4914	0.08	0.00	500 µM (≈ 117 µg/mL)	> 500 µM	290 µM				
CC(C)(C)c1ncc(C(=O)Nc2c(Cl)cccc2Cl)nc1Cl [Compound 12, 5-tert-Butyl-6-chloro-N-(2,6-dichlorophenyl)pyrazine-2-carboxamide]	0%	0.40	1.6631	0.42	1.00	125 µM (≈ 44.8 µg/mL)	125 µM (≈ 44.8 µg/mL)	61 µM				
CC(C)(C)c1cnc(C(=O)Nc2cccc(Cl)c2)cn1 [Compound 3, 5-tert-Butylpyrazine-2-carboxylic acid (3-chlorophenyl)amide]	0%	0.373	1.0996			> 250 µM	> 250 µM	95.5 µM				
CC(C)(C)c1cnc(C(=O)Nc2ccc(Cl)cc2)cn1 [Compound 7]	0%	0.227	1.1043	0.16	0.61	> 250 µM	> 250 µM					
CC(C)(C)c1cnc(C(=O)Nc2ccc(Cl)c(Cl)c2)cn1 [Compound 15]	15%	0.60	1.3395	0.40	0.62	125 µM (≈ 40.5 µg/mL)	125 µM (≈ 40.5 µg/mL)					
O=C(Nc1ccc(Cl)cc1)c1cnccn1 [Compound 5]	4%	0.227	0.4987	0.09	0.00	> 250 µM	> 250 µM	1520 µM				
O=C(Nc1cccc(C(F)(F)F)c1)c1cnccn1 [N-(3-Trifluoromethylphenyl)pyrazine-2-carboxamide]									3.13 to 6.25 µg/mL			
O=C(Nc1ccc(Cl)cc1)c1cncc(Cl)n1 [Compound 6, 6-chloro-N-(4-chlorophenyl)pyrazine-2-carboxamide]	65%	0.227	0.8185	0.13	0.32	> 500 µM	> 500 µM	486 µM				
O=C(Nc1cccc(Cl)c1)c1cncc(Cl)n1 [Compound 2, 6-Chloropyrazine-2-carboxylic acid (3-chlorophenyl)amide]	14%	0.373	0.7864	0.10	0.30	125 µM (≈ 33.5 µg/mL)	125 µM (≈ 33.5 µg/mL)	262 µM				
O=C(Nc1ccc(Cl)c(Cl)c1)c1cnccn1 [Compound 13]	8%	0.60	0.6962	0.30	0.00	> 250 µM	> 250 µM					
O=C(Nc1ccc(Cl)c(Cl)c1)c1cncc(Cl)n1 [Compound 14, 6-chloro-N-(3,4-dichlorophenyl)pyrazine-2-carboxamide]	61%	0.60	0.9950	0.31	0.28	125 µM (≈ 37.8 µg/mL)	250 µM (≈ 75.6 µg/mL)	105 µM				
CC(C)(C)c1ncc(C(=O)Nc2ccc(Cl)c(Cl)c2)nc1Cl [Compound 16, 6-chloro-5-tert-butyl-N-(3,4-dichlorophenyl)pyrazine-2-carboxamide]	0%	0.60	1.7563	0.51	1.04	62.5 µM (≈ 22.4 µg/mL)	62.5 µM (≈ 22.4 µg/mL)	130 µM			62.5 µM (≈ 22.4 µg/mL)	
O=C(Nc1c(Cl)cccc1Cl)c1cncc(Cl)n1 [Compound 10, 6-Chloro-N-(2,6-dichlorophenyl)pyrazine-2-carboxamide]	0%	0.40	0.9456			> 250 µM	> 250 µM	829 µM				
CN(C)C(=O)Nc1ccc(Cl)c(Cl)c1 [DCMU, 3-(3,4-dichlorophenyl)-1,1-dimethylurea]												~1.9 µM and 1.9 µM
CC(C)(C)c1cnc(C(=O)Nc2c(Cl)cccc2Cl)cn1 [Compound 11, 5-tert-Butyl-N-(2,6-dichlorophenyl)pyrazine-2-carboxamide]	0%	0.40	1.2802	0.34	0.61	250 µM (≈ 81.1 µg/mL)	250 µM (≈ 81.1 µg/mL)	153 µM				
CC(C)(C)c1ncc(C(=O)Nc2ccc(Cl)cc2)nc1Cl [Compound 8, 6-chloro-5-tert-butyl-N-(4-chlorophenyl)pyrazine-2-carboxamide]	24%	0.227	1.5015	0.26	1.00	> 250 µM	> 250 µM	43 µM				
O=C(Nc1c(Cl)cccc1Cl)c1cnccn1 [Compound 9, N-(2,6-dichlorophenyl)pyrazine-2-carboxamide]	0%	0.40	0.6656	0.25	0.00	> 500 µM	> 500 µM					
